Where two headings read alike, the source gives them in different places.
Columns and labels:
[1] = tested on: mouse renal cancer cell lines RuCa; assay: WST-1 growth inhibition of mouse renal cancer cell line RuCa in vitro; format: cell-based; details: for Inhibition rate (%): Comparative Example 1, method of Experimental Example 1; for Observation of cell morphology / effect on cell growth / inhibition at 30 µg/mL / OD value (average): 48 h; for Observation of cell morphology / effect on cell growth: inverted microscope, compared with negative control; for inhibition at 30 µg/mL: Mus musculus, read-out: Inhibition rate (%); for inhibition at 30 µg/mL / OD value (average): final concentration 30 μg/ml; for OD value (average): WST-1, absorption at 440 nm
Method: (§1) Human kidney cancer cell line A498 and mouse kidney cancer cell line RuCa; the cells were passaged prior to use, and the cells that were in a good growth state and in log phase growth were selected for use.
(§2) Then, the cells were suspended in complete medium, and the cell concentration was adjusted to 6×10^4/ml. The cells were seeded in 96 well plates at 50 μl/well […], and three multiple wells were set up for each drug concentration.
(§3) On the next day after inoculation, once cells were adherent to the wall, the drugs were added according to the following groups and then incubated for 48 h.
The storage solution of each drug was prepared into 60 μg/ml with complete medium for use; the complete medium of each test drug mentioned above (50 μl) was placed in the 96-well plate inoculated cells, and the final concentration of each group was 30 μg/ml, three wells for each concentration.
Then, 10 μl WST-1 solution was added into the wells of above drug groups, negative control group, and blank control group. After the cells were incubated in 37° C. incubator for 4 h, the absorption values of different drug groups, negative control group and blank control group were measured at 440 nm by μ-Quant microplate analyzer.

[2] = tested on: human renal cancer cell lines A498; assay: WST-1 growth inhibition of human renal cancer cell line A498 in vitro; format: cell-based; details: for Observation of cell morphology / effect on cell growth: inverted microscope, compared with negative control; for inhibition at 15 µg/mL: final concentration 15 μg/ml; for inhibition at 60 µg/mL: final concentration 60 μg/ml; for OD value (average): WST-1, absorption at 440 nm
Method: as §1, §2, §3
The storage solution of each drug was prepared into 60 μg/ml with complete medium for use; the complete medium of each test drug mentioned above (50 μl) was placed in the 96-well plate inoculated cells, […], three wells for each concentration.
Then, 10 μl WST-1 solution was added into the wells of above drug groups, negative control group, and blank control group. […]
In order to objectively evaluate the synergistic effect of the combination of the three compounds, according to the standard proposed in the non patent literature Chou T C. Theoretical basis, experimental design, and computerized simulation of synergism and antagonism in drug combination studies. [J].
A, B and C denote the doses of three components in the pharmaceutical composition; Ae, Be, and Ce denote the dose of a single component required to achieve the tumor inhibition efficiency of the pharmaceutical composition when using a single compound alone. […] The smaller the CI value is, the stronger the synergistic effect is.

[3] = tested on: transplanted tumor RuCa in mice; assay: Inhibitory effect on transplanted tumor RuCa in mice; format: in vivo, mouse; details: for Tumor inhibition rate (%) / Body weight 15 d after administration / Tumor weight: 30 mg/kg ip once a day, 15 times; for Body weight 15 d after administration / Tumor weight / Body weight Before administration: x ± SD, n = 10; for Body weight Before administration: baseline
Description: Mouse renal cancer cell lines RuCa were established by subcutaneously inoculating in mouse axillary. The number of cells inoculated was 1×10^7, and after inoculation formed transplanted tumor, the cells were passaged in mice for 3 generations for use.
• 80 BABL/C-nu mice, half male and half female, weighing 18-22 g; 2 Experimental Method 2.1 Route of Administration
intraperitoneal injection (ip)
The tumor tissue in vigorous growth stage was cut into about 1.5 mm^3 and homogenized under aseptic conditions to prepare 1×10^7/ml cell suspension. 80 mice of the above specifications were inoculated subcutaneously in the right armpit with 0.1 ml cell suspension. On the second day after inoculation, the mice were weighed and randomly divided into 8 groups, with 10 mice in each group, that were test drug 1 group, test drug 2 group, test drug 3 group, test drug 4 group, test drug 5 group, test drug 6 group, test drug 7 group, and negative control group. The test drug group was administrated by intraperitoneal injection (ip), 30 mg/kg/time, once a day, and the administration was successively performed 15 times. The negative group was intraperitoneally injected with the same dose of normal saline, once a day, and the mice were weighed before administration.
At the end of administration, the experiment was stopped, and the mice were killed by cervical dislocation and weighed. The tumor was stripped, and the tumor inhibition rate was calculated.

[4] = Homo sapiens, A498, read-out: Inhibition rate (%)
[5] = Homo sapiens, A498, final concentration 30 μg/ml (Table 3), read-out: Inhibition rate (%)
[6] = Homo sapiens, A498, final concentration 30 μg/ml, 48 h, read-out: Inhibition rate (%)
[7] = final concentration 30 μg/ml, 48 h

Molecule | Inhibition rate (%) [1] [%] | Observation of cell morphology / effect on cell growth ([2]; 48 h) | inhibition at 15 µg/mL [2, 4] [%] | inhibition at 30 µg/mL [2, 5] [%] | inhibition at 30 µg/mL [2, 6] [%] | inhibition at 60 µg/mL [2, 4] [%] | OD value (average) [2, 7] | Observation of cell morphology / effect on cell growth [1] | inhibition at 30 µg/mL [1] [%] | OD value (average) [1] | Tumor inhibition rate (%) [3] [%] | Body weight 15 d after administration [3] | Tumor weight [3] [g] | Body weight Before administration [3] | inhibition at 0.1 µg/mL ([2]; Homo sapiens, A498, final concentration 0.1 μg/ml, read-out: Inhibition rate (%)) [%] | inhibition at 0.5 µg/mL ([2]; Homo sapiens, A498, final concentration 0.5 μg/ml, read-out: Inhibition rate (%)) [%] | inhibition at 1 µg/mL ([2]; Homo sapiens, A498, final concentration 1 μg/ml, read-out: Inhibition rate (%)) [%]
Feruloylquinic acid [reference compound] | 10.42 |  |  |  |  |  |  |  |  |  |  |  |  |  |  |  | 
O=C(/C=C/c1ccc(O)c(O)c1)O[C@@H]1C[C@](O)(C(=O)O)C[C@@H](O)[C@H]1O [Chlorogenic acid, chlorogenic acid] | 37.29 | certain effect on cell growth | 15.7 | 37.2 | 36.5 | 61.3 | 1.494 | certain effect on cell growth | 38.5 | 1.248 | 33.33 | 27.3 ± 1.19 | 1.8 ± 0.14 | 19.6 ± 0.98 |  |  | 
O=C(/C=C/c1ccc(O)cc1)O[C@@H]1C[C@](O)(C(=O)O)C[C@@H](O)[C@H]1O [Coumaroylquinic acid, coumaroylquinic acid] |  | almost had no effect on cell growth | 1.92 | 4.85 | 3.13 | 7.13 | 2.280 | almost had no effect on cell growth | 5.85 | 1.909 | 7.41 | 25.2 ± 1.42 | 2.5 ± 0.19 | 19.4 ± 1.17 |  |  | 
Cinnamoylquinic acid [reference compound] | 13.94 |  |  |  |  |  |  |  |  |  |  |  |  |  |  |  | 
CNC(=O)c1cc(Oc2ccc(NC(=O)Nc3ccc(Cl)c(C(F)(F)F)c3)cc2)ccn1 [Sorafenib, sorafenib, reference compound] |  |  |  |  |  |  |  |  |  |  |  |  |  |  | 5.36 | 13.8 | 29.4

Source: US12156861B2, “Pharmaceutical composition for treating kidney cancer and application thereof” (SICHUAN JIUZHANG BIOLOGICAL SCIENCE AND TECHNOLOGY CO., LTD., priority 2018, dated 2024)
